Reference: ChEMBL document CHEMBL1128135, “Synthesis and biological evaluation of new arylthiophene analogs of DuP 753” (Bioorg Med Chem Lett, 1995)

species: Oryctolagus cuniculus; experiment: In vitro antagonist activity was determined by the ability to antagonize the contractile response to angiotensin II in the isolated rabbit aortic strips; format: functional; settings: Aorta

**Q.** Which IC50 does the source give for CCCCc1nc(Cl)c(CO)n1Cc1ccc(-c2ccccc2C(=O)O)cc1 here?
**A.** 120 nM

**Q.** CCCCc1nc(Cl)c(CO)n1Cc1ccc(-c2ccccc2-c2nn[nH]n2)s1 was tested. Which IC50 did it give?
**A.** 328 nM

**Q.** For CCCCc1nc(Cl)c(C=O)n1Cc1ccc(-c2ccccc2C(=O)O)s1, which IC50 is on record?
**A.** 2000 nM

**Q.** CCCCc1nc(Cl)c(CO)n1Cc1ccc(-c2ccccc2C(=O)O)s1 was tested. Which IC50 did it give?
**A.** 4160 nM

**Q.** How did the IC50 turn out when CCCCc1nc(Cl)c(C=O)n1Cc1ccc(-c2ccccc2-c2nn[nH]n2)s1 was run?
**A.** 330 nM

**Q.** How did the IC50 turn out when CCCCc1nc(Cl)c(CO)n1Cc1ccc(-c2ccccc2-c2nnn[nH]2)cc1 [LOSARTAN] was run?
**A.** 6.1 nM
